Paper PMC12368481, “Discovery of a Phenylalanine‐Derived Natural Compound as a Potential Dual Inhibitor of MDM2 and MDMX” (Chemmedchem, 2025)

Target: T1, MDMX (Homo sapiens, UniProt O15151)
T1 construct: gene MDM4
T1 sequence (O15151 1-110 limits assumed): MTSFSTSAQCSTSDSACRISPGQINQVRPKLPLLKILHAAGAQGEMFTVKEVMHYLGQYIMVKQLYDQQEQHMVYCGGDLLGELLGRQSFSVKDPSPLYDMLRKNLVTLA
Experiment: SPR (Biacore T200), multicycle kinetics
Type: binding
Conditions: read-out: MDMX / K D

Kd: 593 nM
Structure (SMILES): COC(CCCCCCC(C)C)C(=O)N[C@@H](Cc1ccccc1)C(=O)O (stereo partly shown) [P5]
